According to ChEMBL document CHEMBL3046219, “Inhibitive Effect of Prodigiosin on the Proliferation of Human Malignant Pancreatic Cancer Cells” (Med Chem Res, 2005):
pIC50: −log10 of the molar value. Calls of active or inactive are those of the source. The rule behind the calls is not given here.

Experiments:
Homo sapiens [1] = organism: Homo sapiens; experiment: Cytotoxicity against Homo sapiens (human) H8898 cells assessed as reduction in cell viability at 50 umol by MTT assay; format: functional, cell-based; settings: TDE = time-dependent effect
Homo sapiens [2] = organism: Homo sapiens; experiment: Antiproliferative activity against Homo sapiens (human) H8898 cells after 5 days using trypan blue staining by hemocytometry; format: functional
[3] = Cell cycle arrest in Homo sapiens (human) H8898 cells assessed as increase in G0-G1 phase cells at 12 to 50 umol after 24 hr by flow cytometry; format: functional, cell-based
Homo sapiens [4] = organism: Homo sapiens; experiment: Induction of DNA fragmentation in Homo sapiens (human) H8898 cells at 50 umol after 24 hr by agarose gel electrophoresis; format: functional
Homo sapiens [5] = organism: Homo sapiens; experiment: Cytotoxicity against Homo sapiens (human) H8898 cells assessed as reduction in cell viability at 50 umol at 12 hr by MTT assay; format: functional, cell-based
[6] = (§1) Cytotoxicity against Homo sapiens (human) H8898 cells assessed as reduction in cell viability after 12 hr by MTT assay; format: functional, cell-based
Homo sapiens [7] = organism: Homo sapiens; experiment: as §1; format: functional, cell-based
Homo sapiens [8] = organism: Homo sapiens; experiment: Induction of apoptosis in Homo sapiens (human) H8898 cells at 12.5 to 50 umol after 24 hr by FACS analysis; format: functional
Homo sapiens [9] = organism: Homo sapiens; experiment: Induction of apoptosis in Homo sapiens (human) H8898 cells assessed as cytoplasm leakage into membrane bound vesicles at 12.5 umol after 12 hr by microscopy; format: functional
[10] = Drug uptake in Homo sapiens (human) H8898 cells after 24 hr by HPLC analysis; format: ADME
Homo sapiens [11] = organism: Homo sapiens; experiment: Induction of oxidative stress in Homo sapiens (human) H8898 cells assessed as increase in intracellular ROS level after 12 hr using CDCFH-DA by spectrophotometry; format: functional, cell-based
Homo sapiens [12] = organism: Homo sapiens; experiment: Cytotoxicity against Homo sapiens (human) H8898 cells assessed as reduction in cell viability at 50 umol after 2 days by MTT assay; format: functional, cell-based
Homo sapiens [13] = organism: Homo sapiens; experiment: Induction of apoptosis in Homo sapiens (human) H8898 cells assessed as cell compaction at 12.5 umol after 12 hr by microscopy; format: functional
[14] = Cytotoxicity against Homo sapiens (human) H8898 cells assessed as reduction in cell viability at 50 umol after 8 to 12 hr by MTT assay; format: functional
[15] = Cell cycle arrest in Homo sapiens (human) H8898 cells assessed as retardation at G1/S phase at 12 to 50 umol after 24 hr by flow cytometry; format: functional
Homo sapiens [16] = organism: Homo sapiens; experiment: Inhibition of clone formation in Homo sapiens (human) H8898 cells after 5 days using trypan blue staining by inverted microscopy; format: functional
[17] = Cytotoxicity against Homo sapiens (human) H8898 cells assessed as reduction in cell viability at 50 umol after 12 hr by MTT assay; format: functional
[18] = Cell cycle arrest in Homo sapiens (human) H8898 cells assessed as reduction in S phase cells at 12 to 50 umol after 24 hr by flow cytometry; format: functional, cell-based
Homo sapiens [19] = organism: Homo sapiens; experiment: Cytotoxicity against Homo sapiens (human) H8898 cells assessed as reduction in cell viability at 50 umol up to 5 days by MTT assay; format: functional, cell-based
[20] = Cytotoxicity against Homo sapiens (human) H8898 cells assessed as reduction in cell viability at 25 umol after 12 hr by MTT assay; format: functional
Homo sapiens [21] = organism: Homo sapiens; experiment: Induction of DNA fragmentation in Homo sapiens (human) H8898 cells at 12.5 umol after 24 hr by agarose gel electrophoresis; format: functional

For `CCCCCC1=C/C(=C/c2[nH]c(-c3ccc[nH]3)cc2OC)N=C1C` [PRODIGIOSIN], the Activity (Homo sapiens [1]) was “tde”, the Activity (Homo sapiens [2]) was “Active” and the Activity [3] was “Active”. The Activity (Homo sapiens [4]) was “Active”, the Activity (Homo sapiens [5]) was “Active” and the pIC50 [6] was 4.12. The Activity (Homo sapiens [7]) was “Dose-dependent effect”, the Activity (Homo sapiens [8]) was “Active” and the Activity (Homo sapiens [9]) was “Active”. For the same compound, the Drug uptake [10] was “Dose-dependent effect”, the Activity (Homo sapiens [11]) was “Dose-dependent effect” and the Activity (Homo sapiens [12]) was “Active”. For the same compound, the Activity (Homo sapiens [13]) was “Active”, the Activity [14] was 28% and the Activity [15] was “Active”. The Activity (Homo sapiens [16]) was “Active”, the Activity [17] was 34% and the Activity [18] was “Active”. The Activity (Homo sapiens [19]) was “Active”, the Activity [20] was 5.6% and the Activity (Homo sapiens [21]) was “Active”.
